# Assay results published in patent US20250092065A1, “2-(INDAZOL-5-YL)-6-(PIPERIDIN-4-YL)-1,7-NAPHTHYRIDINE DERIVATIVES AND RELATED COMPOUNDS AS MODULATORS FOR SPLICING NUCLEIC ACIDS AND FOR THE TREATMENT OF PROLIFERATIVE DISEASES” (REMIX THERAPEUTICS INC., priority 2022, published 2025).
# Where two headings read alike, the source gives them in different places.
# Experiments:
# Format in all cases: cell-based, human
# [1] = tested on: HTT mRNA; assay: RT-qPCR splicing assay, HTT mRNA canonical (CJ) and alternative (AJ) junction; settings: Homo sapiens; for AC50: HTT alternative junction mRNA, read-out: HTT AJ (increase in AJ mRNA, AC50)
# Procedure, shortened: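 A673 or K562 cells treated 24 h at 37 °C with 11-point 3-fold dilutions (top final 10 uM, DMSO ≤0.25%). Lysates analysed by one-step RT-qPCR for canonical (CJ) and alternative-exon (AJ) junctions, normalized to GAPDH, GUSB or PPIA. ΔΔCt vs DMSO, RQ = 2^(−ΔΔCt), expressed as percentage response.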
# [2] = tested on: MYB; assay: HiBiT protein abundance assay, MYB (K562 HiBiT knock-in); settings: HiBiT knock-in K562 cells, 24 hours, top dose 10 μM
# Procedure, shortened: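 Steps: seed HiBiT knock-in K562 cells; add compound in 10-point 3-fold series from 10 μM final; incubate 24 h, 37 °C; add lytic HiBiT reagent, shake 5 min, wait 10 min; read luminescence. Normalize to parental K562 and DMSO controls, fit 4PL, take IC50.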
# [3] = tested on: Target C; assay: HiBiT protein abundance assay, Target C (K562 HiBiT knock-in); settings: HiBiT knock-in K562 cells, 24 hours, top dose 10 μM
# Procedure, shortened: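 K562 HiBiT knock-in cells (10000/well) were treated 24 h at 37° C with a 10-point 3-fold dilution series (top 10 μM final, ≤0.25% DMSO). HiBiT luminescence was read after lytic LgBiT detection. Percent response used unmodified K562 and DMSO-treated knock-in controls, and IC50 came from a four-parameter fit at 50% of untreated.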
# [4] = HTT canonical junction mRNA, RT-qPCR, read-out: HTT CJ (decrease in CJ mRNA levels, IC50)
# [5] = canonical junction qPCR panel, Table 4, read-out: HTT IC50 (decrease in CJ mRNA levels)
"IC50 [1, 4]","IC50 [1, 5]",IC50 [2],IC50 [3],Compound,AC50 ([1]; RT-qPCR)
100 to 1000 nM,100 to 1000 nM,100 to 1000 nM,100 to 1000 nM,"CN[C@@H]1CCN(c2ccc3nc(-c4cn5cc(C)nc5c(C)c4O)ncc3n2)C1 (single isomer, unassigned) [Compound 504]",100 to 1000 nM
100 to 1000 nM,100 to 1000 nM,< 100 nM,100 to 1000 nM,"CNC(=O)c1nc(-c2cc3cn(C)nc3c(C)c2O)nc2ccc(N3CCN[C@@H](C)C3)cc12 (single isomer, unassigned) [Compound 512]",100 to 1000 nM
< 100 nM,< 100 nM,< 100 nM,100 to 1000 nM,"CN[C@@H]1CCN(c2ccc3nc(-c4cc5cn(C)nc5c(C)c4O)ncc3c2)C1 (single isomer, unassigned) [Compound 521]",100 to 1000 nM
< 100 nM,< 100 nM,< 100 nM,100 to 1000 nM,"CNC(=O)c1nc(-c2cc3cn(C)nc3c(C)c2O)nc2ccc(N3C[C@@H](C)N[C@H](C)C3)cc12 (single isomer, unassigned) [Compound 653]",100 to 1000 nM
100 to 1000 nM,100 to 1000 nM,< 100 nM,100 to 1000 nM,"Cc1c(O)c(-c2ncc3cc(N4C[C@@H](C)N[C@H](C)C4)ccc3n2)cc2cn(C)nc12 (single isomer, unassigned) [Compound 661]",1000 to 10000 nM
100 to 1000 nM,100 to 1000 nM,< 100 nM,100 to 1000 nM,"CNC(=O)c1nc(-c2cc3cn(C)nc3c(F)c2O)nc2ccc(N3C[C@@H](C)N[C@H](C)C3)cc12 (single isomer, unassigned) [Compound 668]",1000 to 10000 nM
100 to 1000 nM,100 to 1000 nM,< 100 nM,100 to 1000 nM,"CNC(=O)c1nc(-c2cc3cn(C)nc3c(F)c2O)nc2ccc(N3C[C@H](C)N[C@@H](C)C3)cc12 (single isomer, unassigned) [Compound 669]",100 to 1000 nM
100 to 1000 nM,100 to 1000 nM,< 100 nM,100 to 1000 nM,"CNC(=O)c1nc(-c2cc3cn(C)nc3cc2O)nc2ccc(N3C[C@H](C)N[C@@H](C)C3)cc12 (single isomer, unassigned) [Compound 676]",100 to 1000 nM
100 to 1000 nM,100 to 1000 nM,< 100 nM,100 to 1000 nM,"CNC(=O)c1nc(-c2cc3cn(C)nc3cc2O)nc2ccc(N3C[C@@H](C)N[C@H](C)C3)cc12 (single isomer, unassigned) [Compound 677]",1000 to 10000 nM
100 to 1000 nM,100 to 1000 nM,< 100 nM,100 to 1000 nM,"Cc1cn2cc(-c3ccc4cc(N5C[C@H](C)N[C@@H](C)C5)cc(F)c4n3)cc(F)c2n1 (single isomer, unassigned) [Compound 705, 2,2,2-trifluoroacetate]",100 to 1000 nM
< 100 nM,< 100 nM,< 100 nM,< 100 nM,Cn1cc2cc(-c3ncc4nc(C5CCNCC5)ccc4n3)c(O)c(F)c2n1 [Compound 155],< 100 nM
100 to 1000 nM,100 to 1000 nM,100 to 1000 nM,1000 to 10000 nM,Cc1nc2cc(O)c(-c3ccc4nc(N5CCNC(C(C)(C)C)C5)ccc4n3)cc2o1 (centres unmarked) [Compound 492],100 to 1000 nM
< 100 nM,< 100 nM,< 100 nM,< 100 nM,Cc1nc2cc(O)c(-c3ccc4nc(N5CC[C@@H](N(C)C(C)(C)C)C5)ccc4n3)cc2o1 [Compound 493],< 100 nM
1000 to 10000 nM,1000 to 10000 nM,1000 to 10000 nM,1000 to 10000 nM,"Cc1c(O)c(-c2nc(C(=O)N(C)C)c3cc(N4CCNCC4)ccc3n2)cc2cn(C)nc12 [Compound 502, 2-(6-hydroxy-2,7-dimethylindazol-5-yl)-N,N-dimethyl-6-(piperazin-1-yl)quinazoline-4-carboxamide]",1000 to 10000 nM
< 100 nM,< 100 nM,< 100 nM,100 to 1000 nM,"CCNC(=O)c1nc(-c2cc3cn(C)nc3c(C)c2O)nc2ccc(N3CCNCC3)cc12 [Compound 503, N-ethyl-2-(6-hydroxy-2,7-dimethylindazol-5-yl)-6-(piperazin-1-yl)quinazoline-4-carboxamide]",< 100 nM
100 to 1000 nM,100 to 1000 nM,< 100 nM,100 to 1000 nM,"CNC(=O)c1nc(-c2cc(F)c3nc(C)cn3c2)nc2ccc(N3CCNCC3)cc12 [Compound 505, 2-{8-fluoro-2-methylimidazo[1,2-a]pyridin-6-yl}-N-methyl-6-(piperazin-1-yl) quinazoline-4-carboxamide]",100 to 1000 nM
< 100 nM,< 100 nM,< 100 nM,100 to 1000 nM,"CNC(=O)c1nc(-c2cc3cn(C)nc3c(F)c2O)nc2ccc(N3CCNCC3)cc12 [Compound 506, 2-(7-fluoro-6-hydroxy-2-methylindazol-5-yl)-N-methyl-6-(piperazin-1-yl)quinazoline-4-carboxamide]",100 to 1000 nM
100 to 1000 nM,100 to 1000 nM,< 100 nM,1000 to 10000 nM,"CNC(=O)c1nc(-c2cc3cn(C)nc3c(C)c2O)nc2ccc(N3CCC(N(C)C)CC3)cc12 [Compound 507, 6-[4-(dimethylamino)piperidin-1-yl]-2-(6-hydroxy-2,7-dimethylindazol-5-yl)-N-methylquinazoline-4-carboxamide]",1000 to 10000 nM
> 10000 nM,> 10000 nM,1000 to 10000 nM,> 10000 nM,"CNc1nc(-c2cc3cn(C)nc3c(C)c2O)nc2ccc(N3CCNCC3)cc12 [Compound 508, 2,7-dimethyl-5-[4-(methylamino)-6-(piperazin-1-yl)quinazolin-2-yl]indazol-6-ol]",> 10000 nM
> 10000 nM,> 10000 nM,1000 to 10000 nM,> 10000 nM,"Cc1c(O)c(-c2nc(N(C)C)c3cc(N4CCNCC4)ccc3n2)cc2cn(C)nc12 [Compound 509, 5-[4-(dimethylamino)-6-(piperazin-1-yl)quinazolin-2-yl]-2,7-dimethylindazol-6-ol]",> 10000 nM
< 100 nM,< 100 nM,< 100 nM,100 to 1000 nM,"CNC(=O)c1nc(-c2cc3cn(C)nc3c(C)c2O)nc2ccc(N3CCC(NC)C3)cc12 (centres unmarked) [Compound 510, 2-(6-hydroxy-2,7-dimethylindazol-5-yl)-N-methyl-6-[3-(methylamino)pyrrolidin-1-yl]quinazoline-4-carboxamide]",100 to 1000 nM
100 to 1000 nM,100 to 1000 nM,< 100 nM,1000 to 10000 nM,"CNC(=O)c1nc(-c2cc3cn(C)nc3c(C)c2O)nc2ccc(N3C[C@@H](C)N[C@@H](C)C3)cc12 [Compound 511, 6-[(3R,5S)-3,5-dimethylpiperazin-1-yl]-2-(6-hydroxy-2,7-dimethylindazol-5-yl)-N-methylquinazoline-4-carboxamide]",100 to 1000 nM
1000 to 10000 nM,1000 to 10000 nM,< 100 nM,1000 to 10000 nM,"CC(=O)c1nc(-c2cc3cn(C)nc3c(F)c2O)nc2ccc(N3CCNCC3)cc12 [Compound 513, 1-(2-(7-fluoro-6-hydroxy-2-methyl-2H-indazol-5-yl)-6-(piperazin-1-yl)quinazolin-4-yl)ethan-1-one 2,2,2-trifluoroacetate]",1000 to 10000 nM
100 to 1000 nM,100 to 1000 nM,< 100 nM,100 to 1000 nM,"Cn1cc2cc(-c3nc(C#N)c4cc(N5CCNCC5)ccc4n3)c(O)c(F)c2n1 [Compound 514, 2-(7-fluoro-6-hydroxy-2-methylindazol-5-yl)-6-(piperazin-1-yl) quinazoline-4-carbonitrile; trifluoroacetic acid]",1000 to 10000 nM

Compound,"IC50 [1, 4]","IC50 [1, 5]",IC50 [2],IC50 [3],AC50 ([1]; RT-qPCR)
"Cn1cc2cc(-c3ccc4nc([C@@H]5CCNC6(CC6)C5)ccc4n3)c(O)cc2n1 (single isomer, unassigned) [Compound 495]",< 100 nM,< 100 nM,< 100 nM,< 100 nM,< 100 nM
"Cn1cc2cc(-c3ccc4nc([C@H]5CCNC6(CC6)C5)ccc4n3)c(O)cc2n1 (single isomer, unassigned) [Compound 496]",100 to 1000 nM,100 to 1000 nM,< 100 nM,< 100 nM,< 100 nM
"Cc1nc2cc(O)c(-c3ccc4nc([C@H]5CCNC6(CC6)C5)ccc4n3)cc2o1 (single isomer, unassigned) [Compound 497]",< 100 nM,< 100 nM,< 100 nM,< 100 nM,< 100 nM
"Cc1nc2cc(O)c(-c3ccc4nc([C@@H]5CCNC6(CC6)C5)ccc4n3)cc2o1 (single isomer, unassigned) [Compound 498]",< 100 nM,< 100 nM,< 100 nM,< 100 nM,< 100 nM
